How the values were obtained:
[1] = tested on: clinical subjects; test: clinical observation of pupil response; format: in vivo, human; conditions: rather than the expected pupilary dilation
[2] = tested on: rats; test: in vivo observation, overdose in rats; conditions: rats exposed to an overdose
[3] = known; cited from earlier work
[4] = detection of radiolabelled compound in saliva; format: in vivo
[5] = tested on: muscarinic cholinergic receptor; test: pharmacological studies, muscarinic cholinergic receptor activity
[6] = tested on: people addicted to nicotine; conditions: cited from earlier work

In the case of Cc1cc2c(s1)Nc1ccccc1N=C2N1CCN(C)CC1 [2-methyl-4-(4-methyl-1-piperazinyl)-10H-thieno[2,3-b][1,5]benzodiazepine], the pupilary response [1] is listed as “pupilary constriction”, the salivation [2] is listed as “significant salivation” and the antipsychotic activity [3] is listed as “can provide antipsychotic activity”. The extrapyramidal symptoms [3] was “less likely to induce extrapyramidal symptoms”, the detection in saliva [4] was “can be detected in the saliva” and the “muscarinic receptor subtype profile” value ([5]; in vivo animal and clinical observations) was “complex muscarinic receptor subtype profile”. The “muscarinic cholinergic receptor activity” value ([5]; pharmacological studies) was “has muscarinic cholinergic receptor activity”.

For Clc1cccc(Cl)c1N=C1NCCN1 [clonidine], the effectiveness versus placebo ([6]; clonidine treatment for six weeks) is listed as “more effective than placebo, but only for women”.

For CNC1(C)C2CCC(C2)C1(C)C (stereo not shown) [mecamylamine], the undesirable side effects ([6]; receptor antagonist therapy) is given as “other undesirable side effects” and the “effect on tobacco consumption” value ([6]; receptor antagonist therapy, short term effect) is given as “increasing tobacco consumption”.

From patent US5696115A, “Method for treating nicotine withdrawal” (Eli Lilly and Company, priority 1995, dated 1997)
